In patent US20230203026A1, “PESTICIDAL COMPOSITIONS AND METHODS” (CORTEVA AGRISCIENCE LLC, priority 2017, published 2023):

Experiments:
[1] = test system: Cabbage Looper (Trichloplusia ni, TRIPNI) ("CL"); experiment: Insecticidal test for cabbage looper, 128-well diet tray assay; type: in vivo; details: Trichoplusia ni, 168 h; 50 μg/cm^2 of test compound on artificial diet; second instar CL larvae; 25° C.; five to seven days; average of eight wells; read-out: CL % Control (or Mortality) rating
Description: Insecticidal Test for Cabbage Looper (Trichloplusia ni, TRIPNI) (“CL”)
(§1) Bioassays on cabbage looper (CL; Trichloplusia ni: Lepidoptera) are conducted using a 128-well diet tray assay. One to five second instar CL larvae are placed in each well (3 mL) of the diet tray that had been previously filled with 1 mL of artificial diet to which 50 μg/cm^2 of the test compound (dissolved in 50 μL of 90:10 acetone-water mixture) had been applied (to each of eight wells) and then allowed to dry. Trays are covered with a clear self-adhesive cover, vented to allow gas exchange, and held at 25° C., 14:10 light-dark for five to seven days. Percent mortality is recorded for the larvae in each well; activity in the eight wells is then averaged.

[2] = test system: beet armyworm (Spodoptera exigua, LAPHEG) ("BAW"); experiment: Insecticidal test for beet armyworm, 128-well diet tray assay; type: in vivo; details: 168 h, 50 μg/cm^2 of test compound on artificial diet, second instar BAW larvae, 25° C., five to seven days, average of eight wells, read-out: BAW % Control (or Mortality) rating
Description: Insecticidal test for beet armyworm (Spodoptera exigua, LAPHEG) (“BAW”)
as §1, with “beet armyworm (BAW; Spodoptera exigua:” for “cabbage looper (CL; Trichloplusia ni:”, “BAW” for “CL”

| SMILES | mortality at 50 µg/cm2 [1] | mortality at 50 µg/cm2 [2] |
| --- | --- | --- |
| CC(C)c1ccc(Cl)cc1N1C(=O)CS/C1=N\C(=O)NN(C)C(C)c1ccc(-c2ncn(-c3ccc(OC(F)(F)F)cc3)n2)cc1 (stereo not shown) [A36, (Z)—N-(3-(5-Chloro-2-isopropylphenyl)-4-oxothiazolidin-2-ylidene)-2-methyl-2-(1-(4-(1-(4-(trifluoromethoxy)phenyl)-1H-1,2,4-triazol-3-yl)phenyl)ethyl)hydrazine-1-carboxamide] | 50 to 100% | 50 to 100% |
| CC(C)c1ccc(Cl)cc1N1C(=O)CS/C1=N\C(=O)NOCc1ccc(-c2ncn(-c3ccc(OC(F)(F)F)cc3)n2)cc1 [A32, (Z)-1-(3-(5-Chloro-2-isopropylphenyl)-4-oxothiazolidin-2-ylidene)-3-((4-(1-(4-(trifluoromethoxy)phenyl)-1H-1,2,4-triazol-3-yl)benzyl)oxy)urea] | 50 to 100% | 50 to 100% |
| CCCc1ccc(C)cc1N1C(=O)CS/C1=N\C(=O)NOC(C)c1ccc(-c2ncn(-c3ccc(OC(F)(F)F)cc3)n2)cc1 (stereo not shown) [A12, (Z)-1-(3-(5-Methyl-2-propylphenyl)-4-oxothiazolidin-2-ylidene)-3-(1-(4-(1-(4-(trifluoromethoxy)phenyl)-1H-1,2,4-triazol-3-yl)phenyl)ethoxy)urea] | 50 to 100% | 50 to 100% |
| CCCc1ccc(C)cc1N1C(=O)CS/C1=N\C(=O)NOCc1ccc(-c2ncn(-c3ccc(OC(F)(F)F)cc3)n2)cc1 [A10, (Z)-1-(3-(5-methyl-2-propylphenyl)-4-oxothiazolidin-2-ylidene)-3-((4-(1-(4-(trifluoromethoxy)phenyl)-1H-1,2,4-triazol-3-yl)benzyl)oxy)urea] | 50 to 100% | 50 to 100% |
| CC(C)c1ccc(Cl)cc1N1C(=O)CS/C1=N\C(=O)NNC(C)c1ccc(-c2ncn(-c3ccc(OC(F)(F)F)cc3)n2)cc1 (stereo not shown) [A8, (Z)—N-(3-(5-Chloro-2-isopropylphenyl)-4-oxothiazolidin-2-ylidene)-2-(1-(4-(1-(4-(trifluoromethoxy)phenyl)-1H-1,2,4-triazol-3-yl)phenyl)ethyl)hydrazine-1-carboxamide] | 50 to 100% | 50 to 100% |
| Cc1ccc(C(C)C)c(N2C(=O)CS/C2=N\C(=O)NN(C)C(C)c2ccc(-c3ncn(-c4ccc(OC(F)(F)F)cc4)n3)cc2)c1 (stereo not shown) [A3, (Z)—N-(3-(2-isopropyl-5-methylphenyl)-4-oxothiazolidin-2-ylidene)-2-methyl-2-(1-(4-(1-(4-(trifluoromethoxy)phenyl)-1H-1,2,4-triazol-3-yl)phenyl)ethyl)hydrazine-1-carboxamide] | 50 to 100% | 50 to 100% |
| Cc1ccc(OCC(F)(F)F)c(N2C(=O)CS/C2=N\C(=O)NN(C)C(C)c2ccc(-c3ncn(-c4ccc(OC(F)(F)F)cc4)n3)cc2)c1 (stereo not shown) [A38, (Z)-2-Methyl-N-(3-(5-methyl-2-(2,2,2-trifluoroethoxy)phenyl)-4-oxothiazolidinylidene)-2-(1-(4-(1-(4-(trifluoromethoxy)phenyl)-1H-1,2,4-triazolyl)phenyl)ethyl)hydrazine-1-carboxamide] | 50 to 100% | 50 to 100% |
| Cc1ccc(C(F)(F)F)c(N2C(=O)CS/C2=N\C(=O)NOCc2ccc(-c3ncn(-c4ccc(OC(F)(F)F)cc4)n3)cc2)c1 [A24, (Z)-1-(3-(5-Methyl-2-(trifluoromethyl)phenyl)-4-oxothiazolidin-2-ylidene)-3-((4-(1-(4-(trifluoromethoxy)phenyl)-1H-1,2,4-triazol-3-yl)benzyl)oxy)urea] | 50 to 100% | 50 to 100% |
| CC(NNC(=O)/N=C1\SCC(=O)N1c1cc(Cl)ccc1OC(F)(F)F)c1ccc(-c2ncn(-c3ccc(OC(F)(F)F)cc3)n2)cc1 (stereo not shown) [A5, (Z)—N-(3-(5-chloro-2-(trifluoromethoxy)phenyl)-4-oxothiazolidin-2-ylidene)-2-(1-(4-(1-(4-(trifluoromethoxy)phenyl)-1H-1,2,4-triazol-3-yl)phenyl)ethyl)hydrazine-1-carboxamide] | 50 to 100% | 50 to 100% |
| COCc1ccc(C)cc1N1C(=O)CS/C1=N\C(=O)NOC(C)c1ccc(-c2ncn(-c3ccc(OC(F)(F)F)cc3)n2)cc1 (stereo not shown) [A16, (Z)-1-(3-(2-(Methoxymethyl)-5-methylphenyl)-4-oxothiazolidin-2-ylidene)-3-(1-(4-(1-(4-(trifluoromethoxy)phenyl)-1H-1,2,4-triazol-3-yl)phenyl)ethoxy)urea] | 50 to 100% | 50 to 100% |
| Cc1ccc(C(C)C)c(N2C(=O)CS/C2=N\C(=O)NN(C)Cc2ccc(-c3ncn(-c4ccc(OC(F)(F)F)cc4)n3)cc2)c1 [A4, (Z)—N-(3-(2-isopropyl-5-methylphenyl)-4-oxothiazolidin-2-ylidene)-2-methyl-2-(4-(1-(4-(trifluoromethoxy)phenyl)-1H-1,2,4-triazol-3-yl)benzyl)hydrazine-1-carboxamide] | 50 to 100% | 50 to 100% |
| CC(C)c1ccccc1N1C(=O)CS/C1=N\C(=O)NOC(C)c1ccc(-c2ncn(-c3ccc(OC(F)(F)F)cc3)n2)cc1 (stereo not shown) [A18, (Z)-1-(3-(2-Isopropylphenyl)-4-oxothiazolidin-2-ylidene)-3-(1-(4-(1-(4-(trifluoromethoxy)phenyl)-1H-1,2,4-triazol-3-yl)phenyl)ethoxy)urea] | 50 to 100% | 50 to 100% |
| Cc1ccc(C(C)C)c(N2C(=O)CS/C2=N\C(=O)ONCc2ccc(-c3ncn(-c4ccc(OC(F)(F)F)cc4)n3)cc2)c1 [A40, (Z)-3-(2-isopropyl-5-methylphenyl)-2-(((((4-(1-(4-(trifluoromethoxy)phenyl)-1H-1,2,4-triazol-3-yl)benzyl)amino)oxy)carbonyl)imino)thiazolidin-4-one] | 50 to 100% | 50 to 100% |
| CCCc1ccc(OC)cc1N1C(=O)CS/C1=N\C(=O)NOC(C)c1ccc(-c2ncn(-c3ccc(OC(F)(F)F)cc3)n2)cc1 (stereo not shown) [A15, (Z)-1-(3-(5-Methoxy-2-propylphenyl)-4-oxothiazolidin-2-ylidene)-3-(1-(4-(1-(4-(trifluoromethoxy)phenyl)-1H-1,2,4-triazol-3-yl)phenyl)ethoxy)urea] | 50 to 100% | 50 to 100% |
| COc1ccc(C(C)C)c(N2C(=O)CS/C2=N\C(=O)NOC(C)c2ccc(-c3ncn(-c4ccc(OC(F)(F)F)cc4)n3)cc2)c1 (stereo not shown) [A14, (Z)-1-(3-(2-Isopropyl-5-methoxyphenyl)-4-oxothiazolidin-2-ylidene)-3-(1-(4-(1-(4-(trifluoromethoxy)phenyl)-1H-1,2,4-triazol-3-yl)phenyl)ethoxy)urea] | 50 to 100% | 50 to 100% |
| Cc1ccc(Cl)c(N2C(=O)CS/C2=N\C(=O)NOC(C)c2ccc(-c3ncn(-c4ccc(OC(F)(F)F)cc4)n3)cc2)c1 (stereo not shown) [A11, (Z)-1-(3-(2-Chloro-5-methylphenyl)-4-oxothiazolidin-2-ylidene)-3-(1-(4-(1-(4-(trifluoromethoxy)phenyl)-1H-1,2,4-triazol-3-yl)phenyl)ethoxy)urea] | 50 to 100% | 50 to 100% |
| Cc1ccc(C(C)C)c(N2C(=O)CS/C2=N\C(=O)NNC(C)c2ccc(-c3ncn(-c4ccc(OC(F)(F)F)cc4)n3)cc2)c1 (stereo not shown) [A9, (Z)—N-(3-(2-Isopropyl-5-methylphenyl)-4-oxothiazolidin-2-ylidene)-2-(1-(4-(1-(4-(trifluoromethoxy)phenyl)-1H-1,2,4-triazol-3-yl)phenyl)ethyl)hydrazine-1-carboxamide] | 50 to 100% | 50 to 100% |
| CC(ONC(=O)/N=C1\SCC(=O)N1c1cc(Cl)ccc1OCC(F)(F)F)c1ccc(-c2ncn(-c3ccc(OC(F)(F)F)cc3)n2)cc1 (stereo not shown) [A20, (Z)-1-(3-(5-Chloro-2-(2,2,2-trifluoroethoxy)phenyl)-4-oxothiazolidin-2-ylidene)-3-(1-(4-(1-(4-(trifluoromethoxy)phenyl)-1H-1,2,4-triazol-3-yl)phenyl)ethoxy)urea] | 50 to 100% | 50 to 100% |
| COc1ccc(C(C)C)c(N2C(=O)CS/C2=N\C(=O)NOCc2ccc(-c3ncn(-c4ccc(OC(F)(F)F)cc4)n3)cc2)c1 [A26, (Z)-1-(3-(2-Isopropyl-5-methoxyphenyl)-4-oxothiazolidin-2-ylidene)-3-((4-(1-(4-(trifluoromethoxy)phenyl)-1H-1,2,4-triazol-3-yl)benzyl)oxy)urea] | 50 to 100% | 50 to 100% |
| CCCc1ccc(OC)cc1N1C(=O)CS/C1=N\C(=O)NOCc1ccc(-c2ncn(-c3ccc(OC(F)(F)F)cc3)n2)cc1 [A23, (Z)-1-(3-(5-Methoxy-2-propylphenyl)-4-oxothiazolidin-2-ylidene)-3-((4-(1-(4-(trifluoromethoxy)phenyl)-1H-1,2,4-triazol-3-yl)benzyl)oxy)urea] | 50 to 100% | 50 to 100% |
